# Assay results published in US12252701B2, “Chimeric antigen receptor T cell therapy” (KITE PHARMA, INC., priority 2020, dated 2025).
# Experiments:
# in vitro = conditions: human
# [1] = cited from earlier work
# CAR-T cells = assay: CAR-T cell expansion assay (KIP-1 or CD3/CD28 stimulation); conditions: for % viabili.: CD3/CD28 stimulation; for % viabi.: KIP-1 stimulation
# Nalm-6 luc = assay: CAR-T cell killing assay (luciferase viability of tumor cells)
# CD19 CAR T cells = assay: CAR T cell cytokine production (Luminex) under CD19 K562, KIP-1 or CD2/3/28 stimulation; conditions: K562-CD19 stimulation, 72 h
smiles,measurement,setting,value
C[C@@H]1CCN(C(=O)CC#N)C[C@@H]1N(C)c1ncnc2[nH]ccc12 [tofacitinib],"viability at 0 day, 50 nM",in vitro,75%
same,"viability at 0 day, 100 nM",in vitro,75%
same,"viability at 4 day, 50 nM",in vitro,67.7%
same,"viability at 4 day, 100 nM",in vitro,61.8%
same,"viability at 8 day, 50 nM",in vitro,74.2%
same,"viability at 8 day, 100 nM",in vitro,64.7%
same,"viability at 12 day, 50 nM",in vitro,80.1%
same,"viability at 12 day, 100 nM",in vitro,85.2%
same,Cmax,"[1]; human, in vivo",58 ng/mL
same,Protein binding,"[1]; plasma protein binding, reported",40%
same,% viabili.,"CAR-T cells; 10 nM, Day 0",84%
same,% viabili.,"CAR-T cells; 10 nM, Day 4",70.8%
same,% viabili.,"CAR-T cells; 10 nM, Day 8",80.9%
same,% viabili.,"CAR-T cells; 10 nM, Day 12",82.9%
same,% viabili.,"CAR-T cells; 20 nM, Day 0",84%
same,% viabili.,"CAR-T cells; 20 nM, Day 4",81.1%
same,% viabili.,"CAR-T cells; 20 nM, Day 8",70.1%
same,% viabili.,"CAR-T cells; 20 nM, Day 12",79.5%
same,% viabili.,"CAR-T cells; 40 nM, Day 0",84%
same,% viabili.,"CAR-T cells; 40 nM, Day 4",89.2%
same,% viabili.,"CAR-T cells; 40 nM, Day 8",73.5%
same,% viabili.,"CAR-T cells; 40 nM, Day 12",74.8%
same,% viabili.,"CAR-T cells; 60 nM, Day 0",84%
same,% viabili.,"CAR-T cells; 60 nM, Day 4",93.1%
same,% viabili.,"CAR-T cells; 60 nM, Day 8",86.6%
same,% viabili.,"CAR-T cells; 60 nM, Day 12",74.5%
same,% viabili.,"CAR-T cells; 80 nM, Day 0",84%
same,% viabili.,"CAR-T cells; 80 nM, Day 4",91.7%
same,% viabili.,"CAR-T cells; 80 nM, Day 8",86.3%
same,% viabili.,"CAR-T cells; 80 nM, Day 12",77%
same,% viabili.,"CAR-T cells; 100 nM, Day 0",84%
same,% viabili.,"CAR-T cells; 100 nM, Day 4",94.3%
same,% viabili.,"CAR-T cells; 100 nM, Day 8",85.5%
same,% viabili.,"CAR-T cells; 100 nM, Day 12",73.9%
same,% viabi.,"CAR-T cells; 10 nM, Day 0",84%
same,% viabi.,"CAR-T cells; 10 nM, Day 4",77.9%
same,% viabi.,"CAR-T cells; 10 nM, Day 8",61.2%
same,% viabi.,"CAR-T cells; 10 nM, Day 12",85.2%
same,% viabi.,"CAR-T cells; 20 nM, Day 0",84%
same,% viabi.,"CAR-T cells; 20 nM, Day 4",84.7%
same,% viabi.,"CAR-T cells; 20 nM, Day 8",64.9%
same,% viabi.,"CAR-T cells; 20 nM, Day 12",79.3%
same,% viabi.,"CAR-T cells; 40 nM, Day 0",84%
same,% viabi.,"CAR-T cells; 40 nM, Day 4",84.3%
same,% viabi.,"CAR-T cells; 40 nM, Day 8",77.5%
same,% viabi.,"CAR-T cells; 40 nM, Day 12",76%
same,% viabi.,"CAR-T cells; 60 nM, Day 0",84%
same,% viabi.,"CAR-T cells; 60 nM, Day 4",82.3%
same,% viabi.,"CAR-T cells; 60 nM, Day 8",70.2%
same,% viabi.,"CAR-T cells; 60 nM, Day 12",76.1%
same,% viabi.,"CAR-T cells; 80 nM, Day 0",84%
same,% viabi.,"CAR-T cells; 80 nM, Day 4",81.8%
same,% viabi.,"CAR-T cells; 80 nM, Day 8",69.7%
same,% viabi.,"CAR-T cells; 80 nM, Day 12",73.4%
same,% viabi.,"CAR-T cells; 100 nM, Day 0",84%
same,% viabi.,"CAR-T cells; 100 nM, Day 4",73.2%
same,% viabi.,"CAR-T cells; 100 nM, Day 8",72.7%
same,% viabi.,"CAR-T cells; 100 nM, Day 12",79.4%
same,effect on T cell expansion,CAR-T cells; at the doses tested (Table 40),moderate effects
same,impacts on expansion in further dose titrations,CAR-T cells; compared with upadacitinib and baricitinib,less severe in comparison
same,Mean tumor cell death (%),"Nalm-6 luc; E:T ratio 1:1, dose 10 nM",98.6%
same,Mean tumor cell death (%),"Nalm-6 luc; E:T ratio 1:1, dose 20 nM",98.4%
same,Mean tumor cell death (%),"Nalm-6 luc; E:T ratio 1:1, dose 40 nM",96.1%
same,Mean tumor cell death (%),"Nalm-6 luc; E:T ratio 1:1, dose 60 nM",97.9%
same,Mean tumor cell death (%),"Nalm-6 luc; E:T ratio 1:1, dose 80 nM",98%
same,Mean tumor cell death (%),"Nalm-6 luc; E:T ratio 1:1, dose 100 nM",97.2%
same,Mean tumor cell death (%),"Nalm-6 luc; E:T ratio 1:3, dose 10 nM",83.2%
same,Mean tumor cell death (%),"Nalm-6 luc; E:T ratio 1:3, dose 20 nM",87.3%
same,Mean tumor cell death (%),"Nalm-6 luc; E:T ratio 1:3, dose 40 nM",85.5%
same,Mean tumor cell death (%),"Nalm-6 luc; E:T ratio 1:3, dose 60 nM",75.7%
same,Mean tumor cell death (%),"Nalm-6 luc; E:T ratio 1:3, dose 80 nM",66.6%
same,Mean tumor cell death (%),"Nalm-6 luc; E:T ratio 1:3, dose 100 nM",46.8%
same,Mean tumor cell death (%),"Nalm-6 luc; E:T ratio 1:9, dose 10 nM",37%
same,Mean tumor cell death (%),"Nalm-6 luc; E:T ratio 1:9, dose 20 nM",28.9%
same,Mean tumor cell death (%),"Nalm-6 luc; E:T ratio 1:9, dose 40 nM",36%
same,Mean tumor cell death (%),"Nalm-6 luc; E:T ratio 1:9, dose 60 nM",40.5%
same,Mean tumor cell death (%),"Nalm-6 luc; E:T ratio 1:9, dose 80 nM",28.2%
same,Mean tumor cell death (%),"Nalm-6 luc; E:T ratio 1:9, dose 100 nM",25.6%
same,"Suppression of cytokine production, IFNg (IC50)",CD19 CAR T cells,Suppress
same,"Suppression of cytokine production, IL-6 (IC50)",CD19 CAR T cells,Suppress
